Laboratory results: US20240180872A1, “METHODS AND COMPOUNDS OF CANNABIDIOL, MELATONIN AND AKBA FOR TREATING PANCREATIC CANCER” (priority 2021, published 2024)

System: PANC-1 cells
Assay: Nude mice orthotopic pancreatic tumor model
Format: in vivo, Athymic Nude-Foxn1nu mice
Conditions: after 30 days of treatment, GEM 50 mg/kg, MLT 400 mg/kg, CBD 10 mg/kg
Excerpt: Species and strain: Athymic Nude-Foxn1nu mice.
PANC-1 cells were thawed and cultured in DMEM (Dulbecco's Modified Eagle Medium) +2% L-glutamine +10% FBS (Fetal Bovine Serum), Penicillin/Streptomycin and maintain the cell culture in 100 mm Petri dish (Sarstedt, Germany).
A period of acclimation (at least 5 days) was allowed to mice before tumor inoculation. Before the inoculum, PANC-1 cells were detached with trypsin, counted with trypan blue and for each inoculum, 1×10^6 cells were suspended in 20 ul of PBS. Mice (n=20) were anesthetized with isoflurane (induction at 4% and maintenance at 2%) and cell solutions (20 μL, 1×10^6 cells) were orthotopically injected into the tail of the pancreas exploiting the echo-guided procedure. The 20 animals inoculated with tumor cells were divided in 4 groups (Table 6) when tumor size reaches a volume of approximately 20-30 mm^3 (tumor size was determined by ultrasound imaging analysis).
The animals were inoculated with 1×10^6 PANC-1 cells with VevoLAZR-X system by using echo-guided injection method. All animals were treated every three days for 30 days starting when tumor reached the volume of approximately 30 mm^3 (around 10-15 days from the inoculum). […]
Tumor volume was analyzed by using Vevo Lab software (Fujifilm Visualsonics).

Nc1ccn([C@@H]2O[C@H](CO)[C@@H](O)C2(F)F)c(=O)n1 [GEM, Gemcitabine]
tumor volumes (IP every three days, Vehicle 630,8): 111,1
effect on tumor volume (IP): high effect
